Data on one molecule can be found in US20240410013A1, “METHODS AND COMPOSITIONS FOR CLASSIFYING AND TREATING KIDNEY CANCER” (Genentech, Inc., priority 2021, published 2024).

The test has as its system previously untreated advanced renal cell carcinoma. Description: IMmotion151 (NCT02420821) Phase 3 randomized trial, atezolizumab plus bevacizumab versus sunitinib, clinical outcomes by biomarker subgroup. The test is classed as in vivo, human. An excerpt:
IMmotion151 (NCT02420821) was a multicenter, open-label, Phase 3, randomized controlled trial of atezolizumab plus bevacizumab (n=454) versus sunitinib (n=461) in patients with previously untreated advanced RCC (Rini et al. Lancet. 393: 2404-2415 (2019)). The study design, methods, and primary clinical findings from IMmotion151 have been reported previously (Rini et al. Lancet. 393: 2404-2415 (2019)).
Briefly, previously untreated patients with unresectable locally advanced or metastatic renal cell carcinoma with any component of clear-cell or sarcomatoid histology were randomized to receive atezolizumab 1200 mg+bevacizumab 15 mg/kg (atezolizumab+bevacizumab) once every 3 weeks (n=454) or sunitinib 50 mg once daily (n=461; 4 weeks on, 2 weeks off). The co-primary endpoints were investigator-assessed progression-free survival (PFS) in patients with ≥1% expressing PD-L1 on immune cells (IC, PD-L1^+) and overall survival (OS) in the intent-to-treat (ITT) population.
IMmotion151 (NCT02420821) was a multicenter, open-label, Phase 3, randomized controlled trial of atezolizumab plus bevacizumab (n=454) vs. sunitinib (n=461) in patients with previously untreated advanced renal cell carcinoma (Rini et al. Lancet. 393: 2404-2415 (2019)).
RNA-seq data from the randomized Phase II trial IMmotion150 were processed as described above. Transcriptional signature scores were derived from T-effector and angiogenesis signatures (McDermott et al. Nat Med. 24: 749-757 (2018)) for each sample, and hazard ratios were calculated at various gene expression scores. Gene expression score cutoffs of 2.93 (40% prevalence) and 5.82 (50% prevalence) were defined for the T-effector and angiogenesis signatures in IMmotion150 based on a combination of prevalence and hazard ratio plateauing. These absolute thresholds were prospectively applied to the IMmotion151 data to classify tumors with high and low T-effector and angiogenesis signatures. Cox-proportional hazard regression models were fit to compare PFS in atezolizumab+bevacizumab or sunitinib-treated patients in gene expression high and low subsets.
All analyses were conducted using Rv3.6.1. Unless otherwise stated, all comparisons for continuous variables use the two-sided Mann-Whitney test (R function wilcox.test) for two groups and the Kruskal-Wallis test (R function kruskal.test) for more than two groups. Dunn's post-hoc test was applied with Benjamini-Hochberg multiple testing correction for pairwise comparisons. For categorical variables, Pearson's Chi-squared test with continuity correction was used (R function chisq.test). Unless otherwise stated, false discovery rate (FDR)-adjusted p-values are reported. *: p<0.05; **: p<0.01; ***: p<0.001. Survival analyses were conducted using Cox-proportional hazard models using the R survival package (v 3.1.7). Log-rank p-values were reported for survival analyses including more than two groups. For all boxplots, the horizontal line represents the median. The lower and upper hinges correspond to the first and third quartiles. The upper whisker extends from the hinge to the largest value no further than 1.5*IQR from the hinge (where IQR is the inter-quartile range, or distance between the first and third quartiles). The lower whisker extends from the hinge to the smallest value at most 1.5*IQR of the hinge.

[1] abbreviates: tumors with CDKN2A/B alterations.

`CCN(CC)CCNC(=O)c1c(C)[nH]c(/C=C2\C(=O)Nc3ccc(F)cc32)c1C` [sunitinib]: the ORR is listed as 27% (PBRM1 non-mutant tumors), 3.1% (Proliferative cluster (#5)) and 20% under setting [1]. Moreover, the mPFS reads like this: (PBRM1 non-mutant tumors) 6.9 months; (Stromal/Proliferative cluster (printed #5)) 5.2 months; (loss-of-function mutations in ARID1A) 6.8 months; (loss-of-function mutations in KMT2C) 7.0 months; (tumors harboring PBRM1 mutations) 11.2 months; under setting [1], 4.1 months. Further, the “objective response rate (ORR)” value (T-effector/Proliferative cluster (#4)) was 19.4%. Further, the Objective response rate (sRCC (sarcomatoid RCC) patients, RECIST 1.1) amounted to 14%. Also, the complete responses under setting [1] is 0%. For the same molecule, under “within sunitinib treatment arm, 95% CI 0.47, 0.75”, the “PFS hazard ratio, Angiogenesis signature high vs low” value turned out to be 0.59. For the same molecule, for the setting “within sunitinib-treated patients, 95% CI 0.51, 0.87”, the “PFS hazard ratio, PBRM1 mutant vs non-mutant tumors” value was 0.67.
